Laboratory results published in ChEMBL document CHEMBL1130144, “Ras farnesyltransferase: a new therapeutic target” (J Med Chem, 1997).
Non-standard residues stand in square brackets, D forms with d. Residues, ends and D or L forms follow the SMILES beside them. *: point of attachment. Cbz = O=C(OCc1ccccc1)*; Bn = c1ccc(C*)cc1

Assays:
[1] = target: T1, Protein farnesyltransferase (Rattus norvegicus, UniProt Q02293+Q04631); test: Activity against rat Farnesyltransferase; type: protein-complex assay
[2] = target: Protein farnesyltransferase (Sus scrofa); test: Activity against pig Farnesyltransferase
[3] = target: T2, Protein farnesyltransferase (Mus musculus) (UniProt Q61239+Q8K2I1); test: Concentration disrupting H-Ras processing in human H-Ras BALB/c 3T3 cells; type: functional, cell-based
[4] = target: T1, Protein farnesyltransferase; test: Activity against rat brain Farnesyltransferase
Farnesyltransferase = target: T3, Farnesyltransferase (Saccharomyces cerevisiae S288c, UniProt P22007+P29703); test: Activity against yeast Farnesyltransferase; type: protein-complex assay
T3 sequence (P29703 whole entry): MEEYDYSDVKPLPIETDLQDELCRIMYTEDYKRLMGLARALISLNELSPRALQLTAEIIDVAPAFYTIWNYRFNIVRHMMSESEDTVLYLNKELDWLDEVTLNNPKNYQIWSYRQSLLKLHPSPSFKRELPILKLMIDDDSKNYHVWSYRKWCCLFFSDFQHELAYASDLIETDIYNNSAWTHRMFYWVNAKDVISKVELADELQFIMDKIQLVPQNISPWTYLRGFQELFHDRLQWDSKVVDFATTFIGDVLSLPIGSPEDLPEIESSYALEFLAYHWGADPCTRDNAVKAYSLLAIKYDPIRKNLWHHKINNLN
T3 sequence (P22007 whole entry): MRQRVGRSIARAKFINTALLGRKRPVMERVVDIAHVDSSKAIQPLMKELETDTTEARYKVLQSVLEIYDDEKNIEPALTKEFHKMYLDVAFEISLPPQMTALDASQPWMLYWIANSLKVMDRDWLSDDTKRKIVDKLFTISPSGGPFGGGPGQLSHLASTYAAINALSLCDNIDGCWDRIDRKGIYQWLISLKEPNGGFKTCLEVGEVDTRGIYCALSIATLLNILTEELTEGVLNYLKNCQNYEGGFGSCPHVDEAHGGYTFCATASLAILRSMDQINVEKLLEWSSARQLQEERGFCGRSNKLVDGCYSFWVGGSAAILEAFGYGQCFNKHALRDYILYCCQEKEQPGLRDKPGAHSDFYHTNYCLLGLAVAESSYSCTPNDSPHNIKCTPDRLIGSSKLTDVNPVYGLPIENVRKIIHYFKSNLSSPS

[5] = target: T4, Protein farnesyltransferase (Homo sapiens, UniProt P49354+P49356); test: Activity against human Farnesyltransferase; type: protein-complex assay
NIH3T3 [6] = test: Inhibition in clonogenic assay against H-Ras-transformed NIH3T3 cells; type: functional, cell-based; details: Mus musculus
[7] = target: T4, Protein farnesyltransferase; test: Inhibitory activity against farnesyl pyrophosphate; type: protein-complex assay
[8] = target: T2, Protein farnesyltransferase (Mus musculus); test: (§1) Inhibition of Ras-processing in H-Ras transformed NIH3T3 fibroblasts; type: functional, cell-based
[9] = target: T4, Protein farnesyltransferase; test: Activity against Farnesyltransferase; type: protein-complex assay
Tumor Cell line = test: Inhibition of colony formation in soft agar of 14 human tumor cell lines; type: functional, cell-based
[10] = target: T4, Protein farnesyltransferase; test: Inhibitory activity against Ras Farnesyltransferase; type: protein-complex assay
[11] = target: Protein farnesyltransferase (Bos taurus, UniProt P29702+P49355); test: Activity against bovine Farnesyltransferase; type: protein-complex assay
Homo sapiens = test: Inhibition of EJ-1 human bladder carcinoma growth at 100 mg/kg; type: functional
[12] = target: T4, Protein farnesyltransferase; test: Inhibition of H-Ras Farnesyltransferase; type: protein-complex assay
Mus musculus [13] = species on record: Mus musculus; test: Concentration causing regression of MMTV-v-Ras mice bearing palpable tumors; type: functional, organism-based
[14] = target: T5, Protein farnesyltransferase (Mus musculus, UniProt Q61239+Q8K2I1); test: as §1; type: functional, cell-based
NIH3T3 [15] = test: Inhibition of Ras processing in v-Ras-transformed NIH 3T3 cell growth in soft agar at 50 uM; type: functional, cell-based; details: Mus musculus
[16] = target: Geranylgeranyl transferase type I (Homo sapiens, UniProt P49354+P53609); test: (§2) Activity against Geranylgeranyl transferase type I; type: protein-complex assay
Mus musculus [17] = test: Activity against H-Ras-transformed rat-1 tumor cells implanted intraperitoneally in athymic mice; type: functional
Mus musculus [18] = species on record: Mus musculus; test: Percent increase in life span of NIH3T3 cell tumor-bearing nude mice; type: functional
NIH3T3 [19] = test: Activity against H-Ras transformed NIH3T3 fibroblasts in a clonogenic assay; type: functional, cell-based; details: Mus musculus
[20] = target: T4, Protein farnesyltransferase; test: Concentration inhibiting farnesylation of p21ras in Ras-transformed cells; type: functional, cell-based
[21] = Inhibition of K-Ras-transformed fibrosarcoma growth; type: functional
NIH3T3 [22] = test: Inhibitory activity against Ha-Ras-transformed NIH3T3 cells; type: functional, Mus musculus
[23] = target: T5, Protein farnesyltransferase; test: Inhibition of Ras processing; type: functional
[24] = target: T4, Protein farnesyltransferase; test: Activity against Ras Farnesyltransferase from human colon carcinoma; type: protein-complex assay
[25] = target: T4, Protein farnesyltransferase; test: Activity against Ras Farnesyltransferase from Burkett's lymphoma.; type: protein-complex assay
[26] = as §2
[27] = target: T4, Protein farnesyltransferase; test: Inhibition of Ras processing in v-Ras-transformed cells; type: functional, cell-based

CSCCC(NC(=O)CN1C(=O)[C@H](N(C)C(=O)[C@H](N)CS)NC(c2ccccc2)c2ccccc21)C(=O)O (stereo partly specified)
IC50 [1]: 0.79 nM

CC(C)=CCC/C(C)=C/CC/C(C)=C/C(=O)C(F)(F)P(=O)(O)O
IC50 [2]: 350 nM

N[C@@H](CS)CNc1ccc(-c2cccc(C(=O)O)c2)cc1
Concentration [3]: 50 µM | IC50 [4]: 50 nM

CCCCC(C)/C=C(C)/C=C(\C)CC(=O)NC1=CC(O)(/C=C/C=C/C=C/C(=O)NC2=C(O)CCC2=O)C2OC2C1=O (stereo unspecified)
IC50 (Farnesyltransferase): 5 µM

CCCCCCCCCCCCCC/C(C(=O)O)=C(\C)C(=O)O [CHAETOMELLIC ACID A]
IC50 [5]: 60 nM

CSCC[C@H](NC(=O)[C@@H]1Cc2ccccc2CN1C(=O)[C@@H](NCCc1cnc[nH]1)C(C)C)C(=O)O
IC50 [1]: 0.79 nM | IC50 (NIH3T3 [6]): 3.8 µM

CC(C)=CCC/C(C)=C/CC/C(C)=C/CCP(=O)(O)CP(=O)(O)O
Ki [7]: 830 nM | Concentration [8]: 1 µM

O=C(CN(Cc1ccc(OCc2ccccc2)cc1)C(=O)[C@H](Cc1c[nH]cn1)NC(=O)OCc1ccccc1)NCCOCc1ccccc1
Concentration [8]: 1 µM | IC50 [9]: 260 nM

CCCCCCCC/C=C\CCCCCC/C(C(=O)O)=C(\C)C(=O)O [CHAETOMELLIC ACID B]
IC50 [5]: 190 nM

CCC/C=C\c1ccccc1/C=C/C(=O)N[C@H](Cc1ccc(O)cc1)C(=O)N(C)C(Cc1ccc(OC)c(O)c1Cl)C(=O)N(C)[C@@H](Cc1ccccc1)C(=O)OC[C@@H]1NC(=O)CNC1=O (stereo partly specified)
IC50 [5]: 100 nM

COC(=O)[C@H](CCSC)NC(=O)[C@H](/C=C\[C@@H](/C=C/[C@@H](N)CS)C(C)C)Cc1ccccc1
IC50 (Tumor Cell line): 60 µM

O=C(N[C@H](Cc1cnc[nH]1)C(=O)N[C@@H](Cc1ccc(OCc2ccccc2)cc1)C(=O)NCCOCc1ccccc1)OCc1ccccc1
IC50 [9]: 20 nM

CC(C)=CCC/C(C)=C/CC/C(C)=C/C(=O)NC(CCC(=O)N[C@H](C(=O)N[C@@H](CC(C)C)C(=O)N[C@@H](CO)C(=O)O)C(C)C)C(=O)O (stereo partly specified)
IC50 [10]: 33 nM

CCC(C)[C@@H](CO[C@@H](Cc1ccccc1)C(=O)N[C@@H](CCS(C)(=O)=O)C(=O)O)NC[C@@H](N)CS (stereo partly specified)
IC50 [11]: 240 nM

CSCC[C@H](NC(=O)[C@H](/C=C\[C@@H](/C=C/[C@@H](N)CS)C(C)C)Cc1ccccc1)C(=O)O
inhibition in vivo at 100 mg/kg (Homo sapiens): 60% | IC50 [12]: 11 nM

CC(C)=CCC/C(C)=C/CC/C(C)=C/CONC(=O)CP(=O)(O)OCOC(=O)C(C)(C)C
IC50 [9]: 2610 nM

CC(C)=CCC/C(C)=C/CC/C(C)=C/C(O)P(=O)(O)O (stereo unspecified)
Ki [7]: 5.2 nM | Concentration [8]: 1 µM

CCC(CC(C)C(=O)O)C(=O)CC/C1=C/C(C)C/C(C)=C/C(C)C(O)C(C)CCC(CCCC/C=C/C(C)CCC(C)OC(=O)CC(CC(=O)O)C(=O)O)OC(=O)CC(C(=O)O)CC(=O)OC1 (stereo unspecified) [ACTINOPLANIC ACID A]
IC50 [5]: 230 nM

CC[C@H](C)[C@@H](CO[C@@H](Cc1ccccc1)C(=O)N[C@@H](CCS(C)(=O)=O)C(=O)OC(C)C)NC[C@@H](N)CS
Concentration (Mus musculus [13]): 40 mg/kg

C[C@@H](NC(=O)[C@H](Cc1c[nH]c2ccccc12)NC(=O)[C@H](COCc1ccccc1)NC(=O)[C@H](Cc1ccc(OCc2ccccc2)cc1)NC(=O)[C@H](Cc1c[nH]cn1)NC(=O)OCc1ccccc1)C(N)=O
IC50 [14]: 420 nM

COC(=O)C1=CC(CO)=COc2oc3cccc(O)c3c(=O)c21 [FUSIDIENOL]
IC50 [11]: 1000 nM

CCC(C)[C@@H](CO[C@@H](Cc1ccccc1)C(=O)N[C@@H](CCS(C)(=O)=O)C(=O)OC)NC[C@@H](N)CS (stereo partly specified)
IC50 [11]: 240 nM | IC50 (NIH3T3 [15]): 10 µM

COC(=O)[C@H](CCSC)NC(=O)[C@@H]1Cc2ccccc2CN1C(=O)[C@@H](NC[C@@H](N)CS)C(C)(C)C
IC50 [16]: 200 nM | T/C (Mus musculus [17]): 154% | IC50 [1]: 85 nM

CC(C)=CCC/C(C)=C/CC/C(C)=C/CNC(=O)C(COP(=O)(O)O)C(=O)O (stereo unspecified)
IC50 [9]: 83 nM

CN(C(=O)[C@@H](Cc1c[nH]cn1)NC(=O)OCc1ccccc1)[C@@H](Cc1ccc(OCc2ccccc2)cc1)C(=O)NCCOCc1ccccc1
Concentration [8]: 2.5 µM

O=C(CN(Cc1ccc(OCc2ccccc2)cc1)C(=O)[C@H](Cc1c[nH]cn1)NC(=O)OCc1ccccc1)NCCc1ccccc1
ILS (Mus musculus [18]): 35% | Concentration [8]: 0.1 µM | IC50 (NIH3T3 [19]): 4.4 µM | IC50 [9]: 170 nM

CCC(OCCCCNCCSS(=O)(=O)O)C1CCCCC1 (stereo unspecified)
Concentration [20]: 25 µM | IC50 [4]: 2000 nM

CN1C(=O)[C@]23CC4=CC=C[C@H](O)[C@H]4N2C(=O)[C@@]1(CO)SS3 [GLIOTOXIN]
Concentration [21]: 6.3 mg/kg | IC50 [9]: 1100 nM

COC1=C(N)C(=O)c2nc(-c3nc(C(=O)O)c(C)c(-c4cccc(OC)c4O)c3N)ccc2C1=O
IC50 [9]: 21000 nM

O=C(N[C@H](Cc1c[nH]cn1)C(=O)N[C@@H](Cc1ccc(OCc2ccccc2)cc1)C(=O)NCCOCc1ccccc1)OCc1ccccc1
Concentration [8]: 5 µM

COC(=O)[C@H](CCSC)NC(=O)[C@@H](NC(=O)[C@@H](NC(=O)CCP(=O)(O)C/C=C(\C)CC/C=C(\C)CCC=C(C)C)C(C)C)C(C)C
Concentration [8]: 0.1 µM

C[C@@H](NC(=O)[C@H](Cc1c[nH]c2ccccc12)NC(=O)[C@H](COCc1ccccc1)NC(=O)[C@H](Cc1ccc(OCc2ccccc2)cc1)NC(=O)[C@@H](Cc1c[nH]cn1)NC(=O)OCc1ccccc1)C(N)=O (Cbz-[dH]Y(Bn)S(Bn)W[dA]-NH2)
Concentration [8]: 25 µM | IC50 [9]: 20 nM

CCC(=O)O[C@H](C[C@@]1(C)[C@H](C)CCC(=O)[C@@H]1C)/C(C)=C/Cc1c(O)cc(C)c(C=O)c1O [CYLINDROL A]
IC50 [11]: 2200 nM

COC(=O)C(CCSC)NC(=O)CN1C(=O)[C@H](N(C)C(=O)[C@H](N)CS)NC(c2ccccc2)c2ccccc21 (stereo partly specified)
IC50 [1]: 0.85 nM

CC(C)(C)[C@H](NC[C@@H](N)CS)C(=O)N1Cc2ccccc2C[C@H]1C(=O)N[C@@H](CCC(N)=O)C(=O)O
IC50 [16]: 1400 nM | IC50 [1]: 2.8 nM

COCC[C@@H]1CN(C(=O)c2cccc3ccccc23)CCN1C[C@H](N)CS
IC75 (NIH3T3 [22]): 40 mg/kg | IC50 [11]: 5 nM | IC50 [16]: 10000 nM | IC50 [23]: 500 nM

O=C1C=C[C@]23Oc4ccc(O)c5c4[C@](Oc4cccc1c42)(O3)C1OC1C5=O (stereo partly specified) [PREUSSOMERIN]
IC50 [11]: 1200 nM

CSC[C@H](NC(=O)c1cccc(CNC(=O)[C@@H](N)CS)c1)C(=O)O
IC50 [24]: 60 nM | IC50 [25]: 120 nM

CC[C@@H](C)[C@H](NC[C@@H](NC[C@@H](N)CS)[C@H](C)CC)C(=O)N[C@H]1CCOC1=O
IC50 [11]: 280 nM | IC50 [16]: > 10000 nM | IC50 (NIH3T3 [15]): 50 µM

CN(C(=O)[C@@H](Cc1cnc[nH]1)NC(=O)OCc1ccccc1)[C@@H](Cc1ccc(OCc2ccccc2)cc1)C(=O)NCCOCc1ccccc1
IC50 [9]: 400 nM

CC[C@H](C)[C@H](NC[C@@H](NC[C@@H](N)CS)[C@@H](C)CC)C(=O)N[C@@H](CCO)C(=O)O
IC50 [11]: 18 nM | IC50 [26]: > 10 µM

CSCC[C@H](NC(=O)[C@H](Cc1ccccc1)NC[C@@H](NC[C@@H](N)CS)C(C)C)C(=O)O
IC50 [27]: 50 µM

CC(C)=CCC/C(C)=C/CC/C(C)=C/CONC(=O)COP(=O)(O)O
IC50 [9]: 75 nM
